# Measurements from patent publication US20090035394A1, “USE OF DNA-PK INHIBITION TO SENSITISE ATM DEFICIENT CANCERS TO DNA-DAMAGING CANCER THERAPIES” (priority 2005, published 2009).
# How the values were obtained:
# [1] = test system: pEBS7-YZ5 (ATM-competent, ATM+/+) cells; assay: Chemopotentiation, sulforhodamine B growth assay in 96 well plates; assay type: cell-based, human; conditions: for % survival / Avg (absorbance at 564 nm): no inhibitor, pEBS7-YZ; for PF50 (potentiation factor at 50% cell kill): damaging agent without / with KU-0060648 (0.5 μM), pEBS7-YZ (ATM-competent)
# Description: (§1) The A-T fibroblast AT221JE-T cells (pEBS7, herein referred to as ATM-null cells) and the trans-complemented ATM+/+ (pEBS7-YZ5, herein referred to as ATM-competent cells) were grown in DMEM+20% FBS PSG and 100 ug/ml hygromycin. These cells are immortalised fibroblasts from an A-T patient which were transfected with pEBS7-YZ5 vector coding for full length ATM and the hygromycin resistance marker or pEBS7 vector, coding for the hygromycin resistance marker only. (Ziv Y et al (1997) Oncogene 15, 159-67)
# (§2) Following a 4-hour incubation to allow cell adherence, 5 μl DNA-PKcS inhibitor KU-0060648 (final concentration 0.5 μM) or DMSO/PBS equivalent was added. After a further 1 hour incubation, 5 μl of chemotherapeutic drug was added per well (see table 1). Drugs were removed after 16 hours and 150 μl fresh medium added per well. After 24h, one plate for each cell line was fixed and stained to account for background differences between the lines. Five days after seeding, the medium was aspirated from the wells of the remaining assay plates and 100 μl ice cold 10% TCA added for 30 minutes at 4° C. The wells were then washed four times with tap water and 50 μl 0.4% sulforhodamine B in 1% acetic acid added per well. After 15 minutes incubation at room temperature, excess stain was washed from the wells with 1% acetic acid. 100 μl […] pH6.8 was then added per well, the plates shaken to resuspend the stain and the absorbance at 564 nm determined.
# pEBS7 (ATM-null) cells = assay: as above; assay type: cell-based, human; conditions: for % survival / Avg (absorbance at 564 nm): no inhibitor, pEBS7; for PF50 (potentiation factor at 50% cell kill): damaging agent without / with KU-0060648 (0.5 μM), pEBS7 (ATM-null)
# Description: as §1, §2
# [2] = Con: etoposide 0.01 (μg/ml per Table 1)
# [3] = Con: etoposide 0.025 (μg/ml per Table 1)
# [4] = Con: etoposide 0.05 (μg/ml per Table 1)
# [5] = Con: etoposide 0.075 (μg/ml per Table 1)
# [6] = Con: etoposide 0.1 (μg/ml per Table 1)
# [7] = Con: etoposide 0.25 (μg/ml per Table 1)
# [8] = Con: etoposide 0.5 (μg/ml per Table 1)
# [9] = Con: etoposide 0.75 (μg/ml per Table 1)
# [10] = Con: etoposide 1 (μg/ml per Table 1)
# [11] = Con: etoposide 2.5 (μg/ml per Table 1)
# [12] = Con: etoposide 5 (μg/ml per Table 1)
# [13] = Con: doxorubicin 0.01 (unit not given)
# [14] = Con: doxorubicin 0.025 (unit not given)
# [15] = Con: doxorubicin 0.05 (unit not given)
# [16] = Con: doxorubicin 0.075 (unit not given)
# [17] = Con: doxorubicin 0.1 (unit not given)
# [18] = Con: doxorubicin 0.25 (unit not given)
# [19] = Con: doxorubicin 0.5 (unit not given)
# [20] = Con: doxorubicin 0.75 (unit not given)
# [21] = Con: doxorubicin 1 (unit not given)
# [22] = Con: doxorubicin 2.5 (unit not given)
# [23] = Con: doxorubicin 5 (unit not given)
smiles,measurement,setting,value
"COc1cc([C@@H]2c3cc4c(cc3[C@@H](O[C@@H]3O[C@@H]5CO[C@@H](C)O[C@H]5[C@H](O)[C@H]3O)[C@H]3COC(=O)[C@H]23)OCO4)cc(OC)c1O [Etoposide, etoposide, reference compound]",% survival,[1]; [2],103.9%
same,Avg (absorbance at 564 nm),[1]; [2],1.74
same,% survival,[1]; [3],93.1%
same,Avg (absorbance at 564 nm),[1]; [3],1.56
same,% survival,[1]; [4],94.1%
same,Avg (absorbance at 564 nm),[1]; [4],1.58
same,% survival,[1]; [5],96.6%
same,Avg (absorbance at 564 nm),[1]; [5],1.62
same,% survival,[1]; [6],104.2%
same,Avg (absorbance at 564 nm),[1]; [6],1.75
same,% survival,[1]; [7],95.8%
same,Avg (absorbance at 564 nm),[1]; [7],1.60
same,% survival,[1]; [8],95.0%
same,Avg (absorbance at 564 nm),[1]; [8],1.59
same,% survival,[1]; [9],75.1%
same,Avg (absorbance at 564 nm),[1]; [9],1.26
same,% survival,[1]; [10],32.4%
same,Avg (absorbance at 564 nm),[1]; [10],0.54
same,% survival,[1]; [11],39.0%
same,Avg (absorbance at 564 nm),[1]; [11],0.65
same,% survival,[1]; [12],21.7%
same,Avg (absorbance at 564 nm),[1]; [12],0.36
same,PF50 (potentiation factor at 50% cell kill),[1],1.7
same,% survival,pEBS7 (ATM-null) cells; [2],84.6%
same,Avg (absorbance at 564 nm),pEBS7 (ATM-null) cells; [2],1.38
same,% survival,pEBS7 (ATM-null) cells; [3],84.9%
same,Avg (absorbance at 564 nm),pEBS7 (ATM-null) cells; [3],1.38
same,% survival,pEBS7 (ATM-null) cells; [4],89.0%
same,Avg (absorbance at 564 nm),pEBS7 (ATM-null) cells; [4],1.45
same,% survival,pEBS7 (ATM-null) cells; [5],90.8%
same,Avg (absorbance at 564 nm),pEBS7 (ATM-null) cells; [5],1.48
same,% survival,pEBS7 (ATM-null) cells; [6],80.6%
same,Avg (absorbance at 564 nm),pEBS7 (ATM-null) cells; [6],1.31
same,% survival,pEBS7 (ATM-null) cells; [7],66.8%
same,Avg (absorbance at 564 nm),pEBS7 (ATM-null) cells; [7],1.09
same,% survival,pEBS7 (ATM-null) cells; [8],53.0%
same,Avg (absorbance at 564 nm),pEBS7 (ATM-null) cells; [8],0.86
same,% survival,pEBS7 (ATM-null) cells; [9],15.8%
same,Avg (absorbance at 564 nm),pEBS7 (ATM-null) cells; [9],0.26
same,% survival,pEBS7 (ATM-null) cells; [10],2.5%
same,Avg (absorbance at 564 nm),pEBS7 (ATM-null) cells; [10],0.04
same,% survival,pEBS7 (ATM-null) cells; [11],1.2%
same,Avg (absorbance at 564 nm),pEBS7 (ATM-null) cells; [11],0.02
same,% survival,pEBS7 (ATM-null) cells; [12],−1.6%
same,Avg (absorbance at 564 nm),pEBS7 (ATM-null) cells; [12],−0.03
same,PF50 (potentiation factor at 50% cell kill),pEBS7 (ATM-null) cells,6.5
"COc1cccc2c1C(=O)c1c(O)c3c(c(O)c1C2=O)C[C@@](O)(C(=O)CO)C[C@@H]3O[C@H]1C[C@H](N)[C@H](O)[C@H](C)O1 [Doxorubicin, doxorubicin, reference compound]",% survival,[1]; [13],88.3%
same,Avg (absorbance at 564 nm),[1]; [13],1.43
same,% survival,[1]; [14],89.4%
same,Avg (absorbance at 564 nm),[1]; [14],1.45
same,% survival,[1]; [15],87.3%
same,Avg (absorbance at 564 nm),[1]; [15],1.42
same,% survival,[1]; [16],94.1%
same,Avg (absorbance at 564 nm),[1]; [16],1.53
same,% survival,[1]; [17],103.9%
same,Avg (absorbance at 564 nm),[1]; [17],1.69
same,% survival,[1]; [18],95.3%
same,Avg (absorbance at 564 nm),[1]; [18],1.55
same,% survival,[1]; [19],53.4%
same,Avg (absorbance at 564 nm),[1]; [19],0.87
same,% survival,[1]; [20],33.2%
same,Avg (absorbance at 564 nm),[1]; [20],0.54
same,% survival,[1]; [21],8.8%
same,Avg (absorbance at 564 nm),[1]; [21],0.14
same,% survival,[1]; [22],−1.7%
same,Avg (absorbance at 564 nm),[1]; [22],−0.03
same,% survival,[1]; [23],−2.6%
same,Avg (absorbance at 564 nm),[1]; [23],−0.04
same,PF50 (potentiation factor at 50% cell kill),[1],1.5
same,% survival,pEBS7 (ATM-null) cells; [13],111.8%
same,Avg (absorbance at 564 nm),pEBS7 (ATM-null) cells; [13],1.46
same,% survival,pEBS7 (ATM-null) cells; [14],117.0%
same,Avg (absorbance at 564 nm),pEBS7 (ATM-null) cells; [14],1.53
same,% survival,pEBS7 (ATM-null) cells; [15],106.4%
same,Avg (absorbance at 564 nm),pEBS7 (ATM-null) cells; [15],1.39
same,% survival,pEBS7 (ATM-null) cells; [16],113.1%
same,Avg (absorbance at 564 nm),pEBS7 (ATM-null) cells; [16],1.47
same,% survival,pEBS7 (ATM-null) cells; [17],111.2%
same,Avg (absorbance at 564 nm),pEBS7 (ATM-null) cells; [17],1.45
same,% survival,pEBS7 (ATM-null) cells; [18],63.8%
same,Avg (absorbance at 564 nm),pEBS7 (ATM-null) cells; [18],0.83
same,% survival,pEBS7 (ATM-null) cells; [19],37.3%
same,Avg (absorbance at 564 nm),pEBS7 (ATM-null) cells; [19],0.49
same,% survival,pEBS7 (ATM-null) cells; [20],12.6%
same,Avg (absorbance at 564 nm),pEBS7 (ATM-null) cells; [20],0.16
same,% survival,pEBS7 (ATM-null) cells; [21],−0.9%
same,Avg (absorbance at 564 nm),pEBS7 (ATM-null) cells; [21],−0.01
same,% survival,pEBS7 (ATM-null) cells; [22],−2.6%
same,Avg (absorbance at 564 nm),pEBS7 (ATM-null) cells; [22],−0.03
same,% survival,pEBS7 (ATM-null) cells; [23],−3.6%
same,Avg (absorbance at 564 nm),pEBS7 (ATM-null) cells; [23],−0.05
same,PF50 (potentiation factor at 50% cell kill),pEBS7 (ATM-null) cells,2.3
